Measurements: article PMC8523698, “Preclinical characterization of an intravenous coronavirus 3CL protease inhibitor for the potential treatment of COVID19” (Nature Communications, 2021)
Several values for one entry are separate records, joined by “and”; a condition that tells them apart may be missing. Equal values may be shown once. Read-outs that look alike come from different tables or passages of the source.

Legend:
HKU4-CoV 3CL^pro = HKU4-CoV 3CL^pro (Bat coronavirus HKU4, UniProt P0C6W3); format: biochemical; details: for Initial Velocity: triplicate, listed as Compound F2
Sequence of HKU4-CoV 3CL^pro (P0C6W3 3292-3597 limits assumed): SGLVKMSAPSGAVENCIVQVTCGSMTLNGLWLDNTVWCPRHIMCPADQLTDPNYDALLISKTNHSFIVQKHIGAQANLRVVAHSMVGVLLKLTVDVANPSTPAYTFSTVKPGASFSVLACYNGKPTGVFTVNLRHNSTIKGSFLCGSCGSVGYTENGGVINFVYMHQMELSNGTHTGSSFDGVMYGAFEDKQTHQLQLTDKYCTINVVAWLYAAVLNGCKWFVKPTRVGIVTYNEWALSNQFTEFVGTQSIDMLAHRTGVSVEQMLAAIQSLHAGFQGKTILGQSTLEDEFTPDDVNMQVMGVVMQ

CYP3A4/5 = CYP3A4/5 (Homo sapiens, UniProt P08684); test: Reversible CYP inhibition in human liver microsomes
Sequence of CYP3A4/5 (P08684 whole entry): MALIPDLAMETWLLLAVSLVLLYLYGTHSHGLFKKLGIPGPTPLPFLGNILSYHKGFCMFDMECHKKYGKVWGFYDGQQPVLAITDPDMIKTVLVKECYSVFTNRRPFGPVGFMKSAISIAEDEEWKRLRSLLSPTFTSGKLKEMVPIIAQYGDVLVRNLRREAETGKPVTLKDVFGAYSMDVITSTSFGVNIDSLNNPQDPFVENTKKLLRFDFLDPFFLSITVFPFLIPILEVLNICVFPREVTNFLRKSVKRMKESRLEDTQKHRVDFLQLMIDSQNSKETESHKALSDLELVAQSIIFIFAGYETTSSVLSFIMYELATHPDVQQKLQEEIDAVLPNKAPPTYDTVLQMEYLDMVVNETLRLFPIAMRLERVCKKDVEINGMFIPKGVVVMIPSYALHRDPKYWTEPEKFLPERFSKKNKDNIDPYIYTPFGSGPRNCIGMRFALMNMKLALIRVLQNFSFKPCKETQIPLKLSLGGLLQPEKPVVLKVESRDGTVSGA

Human Caspase 2 = Human Caspase 2 (Homo sapiens, UniProt P42575); test: Mammalian protease panel; format: biochemical
Sequence of Human Caspase 2 (P42575 170-325 limits assumed): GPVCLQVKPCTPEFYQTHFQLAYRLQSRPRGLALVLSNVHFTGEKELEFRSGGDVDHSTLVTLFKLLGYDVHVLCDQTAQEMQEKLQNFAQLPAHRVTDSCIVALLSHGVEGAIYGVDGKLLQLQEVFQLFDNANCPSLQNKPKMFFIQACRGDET
Sequence of Human Caspase 2 (P42575 348-452 limits assumed): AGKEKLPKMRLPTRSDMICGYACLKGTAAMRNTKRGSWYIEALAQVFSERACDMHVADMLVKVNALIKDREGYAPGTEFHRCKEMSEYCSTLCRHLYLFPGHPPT

CYP2B6 = target: T1, CYP2B6 (Homo sapiens, UniProt P20813); test: Reversible CYP inhibition in human liver microsomes; format: in vitro ADME; details: for activity at 0.1 µM: pH 7.4, CYP 2B6, 0.1 µM; for activity at 0.1 µM / activity at 0.214 µM / activity at 0.979 µM / activity at 2.09 µM / activity at 4.48 µM / activity at 20.5 µM / activity at 43.8 µM / activity at 93.5 µM / activity at 200 µM: read-out: Percent of Control Activity; for activity at 0.214 µM: pH 7.4, CYP 2B6, 0.214 µM; for activity at 0.979 µM: pH 7.4, CYP 2B6, 0.979 µM; for activity at 2.09 µM: pH 7.4, CYP 2B6, 2.09 µM; for activity at 4.48 µM: pH 7.4, CYP 2B6, 4.48 µM; for activity at 20.5 µM: pH 7.4, CYP 2B6, 20.5 µM; for activity at 43.8 µM: pH 7.4, CYP 2B6, 43.8 µM; for activity at 93.5 µM: pH 7.4, CYP 2B6, 93.5 µM; for activity at 200 µM: pH 7.4, CYP 2B6, 200 µM
T1 sequence (P20813 1-491): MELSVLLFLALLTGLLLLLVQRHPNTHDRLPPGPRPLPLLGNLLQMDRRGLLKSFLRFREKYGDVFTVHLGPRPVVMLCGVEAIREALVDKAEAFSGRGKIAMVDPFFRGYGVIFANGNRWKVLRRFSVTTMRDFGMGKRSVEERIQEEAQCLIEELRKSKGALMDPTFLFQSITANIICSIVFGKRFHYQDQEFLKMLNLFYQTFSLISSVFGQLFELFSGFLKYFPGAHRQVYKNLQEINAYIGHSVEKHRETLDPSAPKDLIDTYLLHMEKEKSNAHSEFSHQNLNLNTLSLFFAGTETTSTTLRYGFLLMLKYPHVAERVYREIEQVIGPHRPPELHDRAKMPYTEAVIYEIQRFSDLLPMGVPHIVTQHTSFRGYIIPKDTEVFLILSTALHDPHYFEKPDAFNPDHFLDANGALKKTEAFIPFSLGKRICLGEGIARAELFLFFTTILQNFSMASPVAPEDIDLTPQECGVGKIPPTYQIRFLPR

HKU9-CoV 3CL^pro = HKU9-CoV 3CL^pro (Bat coronavirus HKU9, UniProt P0C6W5); format: biochemical; details: for Initial Velocity: triplicate, listed as Compound F2
Sequence of HKU9-CoV 3CL^pro (P0C6W5 3104-3409 limits assumed): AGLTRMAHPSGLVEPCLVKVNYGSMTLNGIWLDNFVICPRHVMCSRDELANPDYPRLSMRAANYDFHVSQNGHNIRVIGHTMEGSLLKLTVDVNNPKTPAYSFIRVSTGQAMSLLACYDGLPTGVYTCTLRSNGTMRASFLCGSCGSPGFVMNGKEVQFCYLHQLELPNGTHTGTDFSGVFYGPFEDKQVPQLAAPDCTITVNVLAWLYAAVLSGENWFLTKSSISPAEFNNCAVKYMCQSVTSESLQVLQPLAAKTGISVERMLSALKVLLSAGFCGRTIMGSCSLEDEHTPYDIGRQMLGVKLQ

FIPV 3CL^pro = FIPV 3CL^pro (Feline coronavirus, UniProt Q98VG9); format: biochemical
Sequence of FIPV 3CL^pro (Q98VG9 2904-3205): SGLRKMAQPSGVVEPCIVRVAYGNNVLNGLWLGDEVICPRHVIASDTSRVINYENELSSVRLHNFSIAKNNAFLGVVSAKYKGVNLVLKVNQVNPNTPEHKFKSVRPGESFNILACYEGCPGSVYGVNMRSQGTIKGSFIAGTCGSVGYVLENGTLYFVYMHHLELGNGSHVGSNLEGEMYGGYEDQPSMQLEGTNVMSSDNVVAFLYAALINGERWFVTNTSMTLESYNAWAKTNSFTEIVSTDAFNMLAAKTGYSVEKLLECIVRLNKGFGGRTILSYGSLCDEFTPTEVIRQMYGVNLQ

Human Chymotrypsin = test: Mammalian protease panel; format: biochemical
OC43-CoV 3CL^pro = OC43-CoV 3CL^pro (Human coronavirus OC43, UniProt P0C6X6); format: biochemical
Sequence of OC43-CoV 3CL^pro (P0C6X6 3247-3549): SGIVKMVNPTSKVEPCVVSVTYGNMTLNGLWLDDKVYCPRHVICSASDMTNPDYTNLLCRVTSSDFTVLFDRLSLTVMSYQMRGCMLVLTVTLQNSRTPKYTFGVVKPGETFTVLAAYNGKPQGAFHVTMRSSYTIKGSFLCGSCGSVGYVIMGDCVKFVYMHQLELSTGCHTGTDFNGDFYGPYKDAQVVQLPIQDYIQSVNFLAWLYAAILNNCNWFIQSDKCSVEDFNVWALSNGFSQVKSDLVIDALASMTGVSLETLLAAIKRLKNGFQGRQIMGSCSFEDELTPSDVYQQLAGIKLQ

HIV-1 protease = HIV-1 protease (Human immunodeficiency virus type 1 group M subtype B, UniProt P04585); test: Mammalian protease panel; format: biochemical
Protocol: (§1) The respective protease in assay buffer (50 mM Tris with 100 mM sodium chloride and Brij 35 at pH = 8 except for cathepsin D pH = 3.5 and HIV pH = 5.5) was added to assay ready compound plates. The enzymatic reaction was initiated with the addition of indicated substrate in assay buffer. Initial rates were measured by following the fluorescence of the cleaved substrate (Ex/Em 355/460 […]) using a Spectramax (Molecular Devices) fluorescence plate reader in the kinetic format.
(§2) IC50 values were generated based on a four-parameter logistic fit model using ActivityBase software (IDBS). Percent activity values were calculated based on control wells containing no compound (100% activity) and wells containing a control compound (0% activity).

Human Cathepsin B = Human Cathepsin B (Homo sapiens, UniProt P07858); test: Mammalian protease panel; format: biochemical
Protocol: as §1, §2

Human Elastase = Human Elastase (Homo sapiens, UniProt P08246); test: Mammalian protease panel; format: biochemical
Sequence of Human Elastase (P08246 30-247 limits assumed): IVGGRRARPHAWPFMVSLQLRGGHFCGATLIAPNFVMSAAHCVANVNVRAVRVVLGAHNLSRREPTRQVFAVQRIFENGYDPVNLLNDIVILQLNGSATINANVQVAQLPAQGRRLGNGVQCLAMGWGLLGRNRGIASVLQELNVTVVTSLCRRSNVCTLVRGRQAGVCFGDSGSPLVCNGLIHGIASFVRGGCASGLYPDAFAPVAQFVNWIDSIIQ
Protocol: as §1, §2

[1] = human, human liver microsomes, 30-Minute Preincubation
[2] = human, human liver microsomes, Zero-Minute Preincubation

COc1cccc2[nH]c(C(=O)N[C@@H](CC(C)C)C(=O)N[C@@H](C[C@@H]3CCNC3=O)C(=O)CO)cc12 [PF-00835231]
Initial Velocity (HKU4-CoV 3CL^pro; [Compound F2] 1.95312 nM): 0.9709 and 0.9956 and 0.9685 | Initial Velocity (HKU4-CoV 3CL^pro; [Compound F2] 3.90625 nM): 0.9706 and 0.9741 and 0.9413 | Initial Velocity (HKU4-CoV 3CL^pro; [Compound F2] 7.8125 nM): 0.919 and 0.9344 and 0.9288 | Initial Velocity (HKU4-CoV 3CL^pro; [Compound F2] 20 nM): 0.7972 and 0.7875 and 0.7775 | Initial Velocity (HKU4-CoV 3CL^pro; [Compound F2] 30 nM): 0.5859 and 0.5869 and 0.5914 | Initial Velocity (HKU4-CoV 3CL^pro; [Compound F2] 40 nM): 0.342 and 0.3124 and 0.3465 | Initial Velocity (HKU4-CoV 3CL^pro; [Compound F2] 50 nM): 0.1072 and 0.09971 and 0.1255 | Initial Velocity (HKU4-CoV 3CL^pro; [Compound F2] 60 nM): 0.03996 and 0.02999 and 0.0446 | Initial Velocity (HKU4-CoV 3CL^pro; [Compound F2] 80 nM): 0.0186 and 0.01858 and 0.02101 | Initial Velocity (HKU4-CoV 3CL^pro; [Compound F2] 100 nM): 0.01432 and 0.02363 and 0.01328 | Initial Velocity (HKU4-CoV 3CL^pro; [Compound F2] 400 nM): 0.004976 and 0.003329 and 0.004577 | Ki (HKU4-CoV 3CL^pro; mean ± SEM): 0.034 ± 0.079 nM | Ki (CYP3A4/5): 108 µM | CC50 (in vitro; African green monkey, CC50): > 100 µM | CC50 (in vitro; monkey, CC50 GeoMean (95% CI)): > 100 µM | IC50 (Human Caspase 2): > 33 µM | Percent of Control Activity (CYP2B6; CYP 2B6, 0.1 µM, 30-Minute Preincubation, 0.1 µM): 95.8% | Percent of Control Activity (CYP2B6; CYP 2B6, 0.1 µM, Zero-Minute Preincubation, 0.1 µM): 102.2% and 99.6% | Percent of Control Activity (CYP2B6; CYP 2B6, 0.214 µM, 30-Minute Preincubation, 0.214 µM): 99.2% and 94.6% | Percent of Control Activity (CYP2B6; CYP 2B6, 0.214 µM, Zero-Minute Preincubation, 0.214 µM): 97.5% and 98.9% | Percent of Control Activity (CYP2B6; CYP 2B6, 0.979 µM, 30-Minute Preincubation, 0.979 µM): 92.8% and 97.7% | Percent of Control Activity (CYP2B6; CYP 2B6, 0.979 µM, Zero-Minute Preincubation, 0.979 µM): 99.5% and 102.1% | Percent of Control Activity (CYP2B6; CYP 2B6, 2.09 µM, Zero-Minute Preincubation, 2.09 µM): 101.6% | Percent of Control Activity (CYP2B6; CYP 2B6, 4.48 µM, 30-Minute Preincubation, 4.48 µM): 102.3% and 98.3% | Percent of Control Activity (CYP2B6; CYP 2B6, 4.48 µM, Zero-Minute Preincubation, 4.48 µM): 96.6% | Percent of Control Activity (CYP2B6; CYP 2B6, 20.5 µM, 30-Minute Preincubation, 20.5 µM): 88.5% and 89.3% | Percent of Control Activity (CYP2B6; CYP 2B6, 20.5 µM, Zero-Minute Preincubation, 20.5 µM): 90.2% and 87.9% | Percent of Control Activity (CYP2B6; CYP 2B6, 43.8 µM, 30-Minute Preincubation, 43.8 µM): 89.3% and 86.6% | Percent of Control Activity (CYP2B6; CYP 2B6, 43.8 µM, Zero-Minute Preincubation, 43.8 µM): 84.2% and 79.6% | Percent of Control Activity (CYP2B6; CYP 2B6, 93.5 µM, 30-Minute Preincubation, 93.5 µM): 69.4% and 77.3% | Percent of Control Activity (CYP2B6; CYP 2B6, 93.5 µM, Zero-Minute Preincubation, 93.5 µM): 73.2% and 72.0% | Percent of Control Activity (CYP2B6; CYP 2B6, 200 µM, 30-Minute Preincubation, 200 µM): 59.5% and 60.0% | Percent of Control Activity (CYP2B6; CYP 2B6, 200 µM, Zero-Minute Preincubation, 200 µM): 54.6% and 55.4% | activity at 0.1 µM (CYP2B6; [1]): 102% | activity at 0.1 µM (CYP2B6; [2]): 104% | activity at 0.214 µM (CYP2B6; [1]): 103% | activity at 0.214 µM (CYP2B6; [2]): 103% | activity at 0.979 µM (CYP2B6; [1]): 100% | activity at 0.979 µM (CYP2B6; [2]): 105% | activity at 2.09 µM (CYP2B6; [1]): 101% | activity at 2.09 µM (CYP2B6; [2]): 105% | activity at 4.48 µM (CYP2B6; [1]): 103% | activity at 4.48 µM (CYP2B6; [2]): 100% | activity at 20.5 µM (CYP2B6; [1]): 91.3% | activity at 20.5 µM (CYP2B6; [2]): 91.9% | activity at 43.8 µM (CYP2B6; [1]): 87.1% | activity at 43.8 µM (CYP2B6; [2]): 86.4% | activity at 93.5 µM (CYP2B6; [1]): 73.5% | activity at 93.5 µM (CYP2B6; [2]): 73.7% | activity at 200 µM (CYP2B6; [1]): 59% | activity at 200 µM (CYP2B6; [2]): 55.5% | IC50 (CYP2B6; human, human liver microsomes, pH 7.4, probe bupropion (hydroxylation), at approximately KM): > 200 µM | Initial Velocity (HKU9-CoV 3CL^pro; [Compound F2] 1.95312 nM): 0.9878 and 0.9959 and 0.983 | Initial Velocity (HKU9-CoV 3CL^pro; [Compound F2] 3.90625 nM): 0.9913 and 0.9924 and 0.95 | Initial Velocity (HKU9-CoV 3CL^pro; [Compound F2] 7.8125 nM): 0.9224 and 0.9795 and 0.9137 | Initial Velocity (HKU9-CoV 3CL^pro; [Compound F2] 20 nM): 0.886 and 0.9243 and 0.93 | Initial Velocity (HKU9-CoV 3CL^pro; [Compound F2] 30 nM): 0.8569 and 0.8538 and 0.879 | Initial Velocity (HKU9-CoV 3CL^pro; [Compound F2] 31.25 nM): 0.8589 and 0.8929 and 0.8492 | Initial Velocity (HKU9-CoV 3CL^pro; [Compound F2] 40 nM): 0.8139 and 0.8202 and 0.8114 | Initial Velocity (HKU9-CoV 3CL^pro; [Compound F2] 50 nM): 0.7816 and 0.7894 and 0.7901 | Initial Velocity (HKU9-CoV 3CL^pro; [Compound F2] 60 nM): 0.7312 and 0.6789 and 0.7455 | Initial Velocity (HKU9-CoV 3CL^pro; [Compound F2] 62.5 nM): 0.7579 and 0.8162 and 0.7406 | Initial Velocity (HKU9-CoV 3CL^pro; [Compound F2] 80 nM): 0.682 and 0.6702 and 0.6841 | Initial Velocity (HKU9-CoV 3CL^pro; [Compound F2] 100 nM): 0.6302 and 0.62 and 0.5903 | Initial Velocity (HKU9-CoV 3CL^pro; [Compound F2] 200 nM): 0.2879 and 0.279 and 0.2522 | Initial Velocity (HKU9-CoV 3CL^pro; [Compound F2] 1000 nM): 0.000466 and 0.000256 | Ki (HKU9-CoV 3CL^pro; mean ± SEM): 0.00074 ± 0.00068 µM | Ki (FIPV 3CL^pro): 0.00012 ± 0.0001 µM | IC50 (Human Chymotrypsin): > 100 µM | Ki (OC43-CoV 3CL^pro): 0.00051 ± 0.00012 µM | IC50 (HIV-1 protease): > 11 µM | IC50 (Human Cathepsin B): 6 µM and 6.1 µM | IC50 (Human Elastase): > 33 µM
